According to ChEMBL document CHEMBL1157092, “Jacaranone-derived glucosidic esters from Jacaranda glabra and their activity against Plasmodium falciparum” (J Nat Prod, 2010):
In brackets after ≈: the same amount, converted by molar mass.

What was measured:
Plasmodium falciparum = assay: Antiplasmodial activity against chloroquine and pyrimethamine-resistant Plasmodium falciparum K1 infected in human erythrocytes after 48 hrs by [3]H-hypoxanthine incorporation assay; assay type: functional, organism-based; conditions: K1, 48 h
L6 = assay: Cytotoxicity against rat L6 cells after 72 hrs by alamar blue assay; assay type: cell-based; conditions: L6, 72 h

With `O=C1C=CC(O)(CC(=O)OC[C@H]2O[C@@H](OC(=O)CC3(O)C=CC(=O)C=C3)[C@H](OC(=O)Cc3ccccc3)[C@@H](OC(=O)Cc3ccccc3)[C@@H]2O)C=C1` [JACAGLABROSIDE A] the IC50 (Plasmodium falciparum) was 1.02 µg/mL (≈ 1.42 µM) and the IC50 (L6) was 8.3 µg/mL (≈ 11.6 µM).
`O=C1C=CC(O)(CC(=O)OC[C@H]2O[C@@H](OC(=O)CC3(O)C=CC(=O)C=C3)[C@H](OC(=O)Cc3ccccc3)[C@@H](O)[C@@H]2O)C=C1` [JACAGLABROSIDE B] gave an IC50 (Plasmodium falciparum) of 0.56 µg/mL (≈ 0.936 µM) and an IC50 (L6) greater than 90 µg/mL.
With `O=C1C=CC(O)(CC(=O)OC[C@H]2O[C@@H](OC(=O)CC3(O)C=CC(=O)C=C3)[C@H](OC(=O)Cc3ccc(O)cc3)[C@@H](OC(=O)Cc3ccccc3)[C@@H]2O)C=C1` [JACAGLABROSIDE C] the IC50 (Plasmodium falciparum) was 0.56 µg/mL (≈ 0.764 µM) and the IC50 (L6) was 87 µg/mL (≈ 119 µM).
`O=C1C=CC(O)(CC(=O)OC[C@H]2O[C@@H](OC(=O)CC3(O)C=CC(=O)C=C3)[C@H](OC(=O)Cc3ccccc3)[C@@H](OC(=O)Cc3ccc(O)cc3)[C@@H]2O)C=C1` [JACAGLABROSIDE D] showed an IC50 (Plasmodium falciparum) of 0.55 µg/mL (≈ 0.751 µM) and an IC50 (L6) of 84.8 µg/mL (≈ 116 µM).
`COC(=O)CC1(O)C=CC(=O)C=C1` [JACARANONE] was tested, and the IC50 (Plasmodium falciparum) was 1.32 µg/mL (≈ 7.25 µM) and the IC50 (L6) was 1.06 µg/mL (≈ 5.82 µM).
`O=C(O)Cc1ccccc1` [PHENYLACETIC ACID] was tested, and the IC50 (Plasmodium falciparum) was greater than 5 µg/mL and the IC50 (L6) was greater than 90 µg/mL.
